Earlier results as cited in US11364187B2, “Compositions and methods for preventing and reversing aspects of aging” (CENTERS FOR AGE CONTROL, INC., priority 2017, dated 2022).
Values belong to the molecule of their own block, whether it stands above or below them.

Tests used:
[1] = 60 year old human equivalent mice, one week of injections
[2] = human body
SIRT1 enzyme = molecular target: T1, SIRT1 enzyme (Homo sapiens, UniProt Q96EB6); conditions: in vitro
T1 sequence (Q96EB6 1-747): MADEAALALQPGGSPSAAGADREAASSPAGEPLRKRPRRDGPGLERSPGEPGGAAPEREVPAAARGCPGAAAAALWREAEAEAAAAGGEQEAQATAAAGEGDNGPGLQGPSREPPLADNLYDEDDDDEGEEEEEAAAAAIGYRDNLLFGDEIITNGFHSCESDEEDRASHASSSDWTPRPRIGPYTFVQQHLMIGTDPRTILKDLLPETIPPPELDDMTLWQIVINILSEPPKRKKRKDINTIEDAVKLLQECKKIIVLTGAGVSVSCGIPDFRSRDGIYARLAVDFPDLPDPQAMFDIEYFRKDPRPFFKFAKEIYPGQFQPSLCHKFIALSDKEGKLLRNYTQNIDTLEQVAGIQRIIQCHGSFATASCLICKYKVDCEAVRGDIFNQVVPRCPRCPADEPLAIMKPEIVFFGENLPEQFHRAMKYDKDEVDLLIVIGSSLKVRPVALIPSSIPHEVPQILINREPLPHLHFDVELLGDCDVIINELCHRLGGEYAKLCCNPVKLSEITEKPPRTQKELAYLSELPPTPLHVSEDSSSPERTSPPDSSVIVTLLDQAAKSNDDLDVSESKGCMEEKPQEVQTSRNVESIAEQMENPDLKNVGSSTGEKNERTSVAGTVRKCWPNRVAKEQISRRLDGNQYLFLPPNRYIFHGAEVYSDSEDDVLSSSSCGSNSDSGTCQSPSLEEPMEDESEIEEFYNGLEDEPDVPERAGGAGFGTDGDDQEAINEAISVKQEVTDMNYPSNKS

[3] = topically applied

SMILES: NC(=O)c1ccc[n+]([C@@H]2O[C@H](COP(=O)([O-])O)[C@@H](O)[C@H]2O)c1 [NMN, nicotinamide mono nucleotide]
muscle tissue age appearance [1]: muscle tissue resembling 20 years old

absorption [2]: about 80%
absorption relative to resveratrol [2]: about four times more effectively
SMILES: COc1cc(/C=C/c2ccc(O)cc2)cc(OC)c1 [Pterostilbene]

SMILES: NC(=O)c1cccnc1 [nicotinamide]
effect on SIRT1 enzyme (SIRT1 enzyme): direct inhibitor of SIRT1 enzyme in vitro
wrinkles and dark spots on skin [3]: reduces the wrinkles and dark spots on skin
